Measurements from paper PMC7613998, “Development of selective inhibitors of phosphatidylinositol 3-kinase C2α” (Nature Chemical Biology, 2022).
Like-named read-outs stand apart in the source and are kept apart here.

What was measured:
Assay in all cases: biochemical
PI3KC2γ = molecular target: T1, PI3KC2γ (Homo sapiens, UniProt O75747); design: ADP-Glo lipid kinase assay with liver PI substrate, luminescence
T1 construct: gene PIK3C2G

PIP5K1B = PIP5K1B (Homo sapiens, UniProt O14986); design: SelectScreen Adapta purified lipid kinase panel, 1 uM compound, 10 uM ATP, per cent inhibition; settings: ATP=10; Technology=Adapta; 10 uM ATP
Description: (§1) As PI3KC2α is related to other PI3Ks and to PI3K-like protein kinases such as mTOR, the selectivity of PITCOINs was determined in a panel of biochemical assays. […] Finally, the high specificity of PITCOINs for PI3KC2α was verified by Kinobead profiling experiments. In this approach, the ability of PITCOINs to compete the affinity capture of cellular kinases on immobilized nonselective kinase inhibitors (Kinobeads) is analyzed by mass spectrometry (MS)[31]. […] Four nonkinase weak off-targets were globally found for the three inhibitors with only FECH[32] common to the three PITCOINs (Supplementary Dataset).  Extended Data Fig. 2 Lipid kinase inhibitor profile of PITCOIN1-3. (a–c) Selectivity profiling of PITCOIN1-3 (1 µM) with purified lipid kinases in the presence of 10 µM ATP. […] Data are presented as mean ± SD from two independent experiments. (d, e) IC50 measurements of PITCOIN1-3 against purified recombinant class I PI3K p110α/p85α (d) or purified class III PI3K VPS34 complex II (e). 10 µM ATP and 20 µM PIP3 (for p110α/p85α) or 200 µM PI (for VPS34 complex II) were used as substrates. […] Data are presented as mean ± SD from two independent experiments. Source data

[1] = molecular target: PIK3CA/PIK3R3 (p110 alpha/p55 gamma) (Homo sapiens, UniProt P42336); design: SelectScreen Adapta purified lipid kinase panel, 1 uM compound, 10 uM ATP, per cent inhibition; settings: ATP=10; Technology=Adapta; 10 uM ATP
Description: as §1

[2] = molecular target: PIK3CA E545K/PIK3R1 (p110 alpha E545K/p85 alpha) (Homo sapiens, UniProt P42336, E545K); design: SelectScreen Adapta purified lipid kinase panel, 1 uM compound, 10 uM ATP, per cent inhibition; settings: ATP=10; Technology=Adapta; 10 uM ATP
Description: as §1

FRAP1 (mTOR) = FRAP1 (mTOR) (Homo sapiens, UniProt P42345); design: SelectScreen Z'-LYTE mTOR kinase assay, 1 uM compound, 10 uM ATP, per cent inhibition; settings: ATP=10; Technology=ZLYTE; 10 uM ATP
Description: as §1

VPS34 complex II = molecular target: T2, VPS34 complex II (Homo sapiens, UniProt Q8NEB9); design: Lipid kinase activity assay on purified class I PI3K or VPS34 complex II, 10 uM ATP
T2 construct: gene PIK3C3
T2 sequence (Q8NEB9 whole entry): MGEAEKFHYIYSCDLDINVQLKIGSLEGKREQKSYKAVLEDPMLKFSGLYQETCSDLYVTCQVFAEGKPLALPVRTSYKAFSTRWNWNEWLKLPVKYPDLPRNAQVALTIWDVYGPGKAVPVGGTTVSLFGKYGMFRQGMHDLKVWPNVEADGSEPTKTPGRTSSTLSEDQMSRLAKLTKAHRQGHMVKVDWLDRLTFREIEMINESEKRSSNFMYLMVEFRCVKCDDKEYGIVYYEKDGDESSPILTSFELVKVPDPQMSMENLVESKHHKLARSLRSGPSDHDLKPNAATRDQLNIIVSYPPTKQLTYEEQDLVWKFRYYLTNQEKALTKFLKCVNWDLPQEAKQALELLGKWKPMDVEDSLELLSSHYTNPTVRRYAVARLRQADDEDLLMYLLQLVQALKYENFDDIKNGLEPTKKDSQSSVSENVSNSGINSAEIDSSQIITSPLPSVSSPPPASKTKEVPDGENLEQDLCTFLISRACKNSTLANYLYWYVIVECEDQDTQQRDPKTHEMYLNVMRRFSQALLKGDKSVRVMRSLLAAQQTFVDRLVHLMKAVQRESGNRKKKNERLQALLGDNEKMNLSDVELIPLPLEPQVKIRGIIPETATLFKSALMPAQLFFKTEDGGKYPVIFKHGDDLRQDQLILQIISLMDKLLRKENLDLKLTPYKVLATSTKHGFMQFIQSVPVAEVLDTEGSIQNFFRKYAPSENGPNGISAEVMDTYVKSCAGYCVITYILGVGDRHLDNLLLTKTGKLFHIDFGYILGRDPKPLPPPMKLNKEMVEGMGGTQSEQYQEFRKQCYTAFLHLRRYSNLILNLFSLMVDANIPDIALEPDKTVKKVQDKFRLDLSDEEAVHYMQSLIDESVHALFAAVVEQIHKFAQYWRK
T2 sequence (Q14457 whole entry partner): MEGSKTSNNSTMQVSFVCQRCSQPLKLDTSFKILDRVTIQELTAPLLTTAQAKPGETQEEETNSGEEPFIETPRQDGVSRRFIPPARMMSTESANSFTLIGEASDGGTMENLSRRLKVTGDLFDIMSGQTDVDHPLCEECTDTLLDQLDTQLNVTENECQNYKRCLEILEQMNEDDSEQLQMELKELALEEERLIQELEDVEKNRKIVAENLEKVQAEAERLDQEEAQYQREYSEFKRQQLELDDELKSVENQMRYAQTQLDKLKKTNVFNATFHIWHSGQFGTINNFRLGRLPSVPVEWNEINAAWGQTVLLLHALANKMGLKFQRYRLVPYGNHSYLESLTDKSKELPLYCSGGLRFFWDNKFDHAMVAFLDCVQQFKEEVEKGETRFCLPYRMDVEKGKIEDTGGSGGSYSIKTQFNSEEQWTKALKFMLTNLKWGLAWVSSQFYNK
T2 sequence (Q99570 whole entry partner): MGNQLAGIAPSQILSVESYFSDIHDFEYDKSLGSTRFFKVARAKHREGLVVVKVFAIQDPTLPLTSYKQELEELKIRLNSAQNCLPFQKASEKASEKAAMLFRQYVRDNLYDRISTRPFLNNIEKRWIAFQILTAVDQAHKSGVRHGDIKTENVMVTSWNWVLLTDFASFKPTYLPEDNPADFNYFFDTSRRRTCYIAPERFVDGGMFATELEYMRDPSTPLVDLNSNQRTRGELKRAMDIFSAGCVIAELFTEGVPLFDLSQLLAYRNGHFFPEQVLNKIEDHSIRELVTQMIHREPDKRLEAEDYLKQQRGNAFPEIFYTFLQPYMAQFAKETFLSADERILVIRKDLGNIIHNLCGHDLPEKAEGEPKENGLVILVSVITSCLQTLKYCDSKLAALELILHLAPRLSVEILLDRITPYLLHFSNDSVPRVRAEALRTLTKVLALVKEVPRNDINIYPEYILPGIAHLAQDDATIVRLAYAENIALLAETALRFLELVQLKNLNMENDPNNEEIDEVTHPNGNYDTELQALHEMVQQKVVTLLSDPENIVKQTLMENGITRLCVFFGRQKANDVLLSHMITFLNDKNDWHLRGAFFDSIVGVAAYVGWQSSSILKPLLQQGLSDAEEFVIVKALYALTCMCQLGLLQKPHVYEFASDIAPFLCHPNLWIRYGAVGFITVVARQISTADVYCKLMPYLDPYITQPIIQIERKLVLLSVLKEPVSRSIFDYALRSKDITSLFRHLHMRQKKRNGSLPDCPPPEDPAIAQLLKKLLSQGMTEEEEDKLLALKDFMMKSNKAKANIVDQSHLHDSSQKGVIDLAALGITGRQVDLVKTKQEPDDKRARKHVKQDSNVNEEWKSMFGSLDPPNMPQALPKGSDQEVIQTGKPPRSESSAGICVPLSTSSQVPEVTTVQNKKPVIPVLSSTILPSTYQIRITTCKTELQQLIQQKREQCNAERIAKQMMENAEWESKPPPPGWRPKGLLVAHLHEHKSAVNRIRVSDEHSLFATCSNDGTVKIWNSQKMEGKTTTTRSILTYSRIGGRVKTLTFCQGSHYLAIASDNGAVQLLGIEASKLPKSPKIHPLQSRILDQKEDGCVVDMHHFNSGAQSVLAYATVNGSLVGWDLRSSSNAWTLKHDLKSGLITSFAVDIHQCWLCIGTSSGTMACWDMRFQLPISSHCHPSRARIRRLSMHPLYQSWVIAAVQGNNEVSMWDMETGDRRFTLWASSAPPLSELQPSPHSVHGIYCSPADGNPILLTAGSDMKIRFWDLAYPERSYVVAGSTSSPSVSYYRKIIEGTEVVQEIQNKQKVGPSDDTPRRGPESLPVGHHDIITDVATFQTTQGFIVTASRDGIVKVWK
T2 sequence (Q9P2Y5 whole entry partner): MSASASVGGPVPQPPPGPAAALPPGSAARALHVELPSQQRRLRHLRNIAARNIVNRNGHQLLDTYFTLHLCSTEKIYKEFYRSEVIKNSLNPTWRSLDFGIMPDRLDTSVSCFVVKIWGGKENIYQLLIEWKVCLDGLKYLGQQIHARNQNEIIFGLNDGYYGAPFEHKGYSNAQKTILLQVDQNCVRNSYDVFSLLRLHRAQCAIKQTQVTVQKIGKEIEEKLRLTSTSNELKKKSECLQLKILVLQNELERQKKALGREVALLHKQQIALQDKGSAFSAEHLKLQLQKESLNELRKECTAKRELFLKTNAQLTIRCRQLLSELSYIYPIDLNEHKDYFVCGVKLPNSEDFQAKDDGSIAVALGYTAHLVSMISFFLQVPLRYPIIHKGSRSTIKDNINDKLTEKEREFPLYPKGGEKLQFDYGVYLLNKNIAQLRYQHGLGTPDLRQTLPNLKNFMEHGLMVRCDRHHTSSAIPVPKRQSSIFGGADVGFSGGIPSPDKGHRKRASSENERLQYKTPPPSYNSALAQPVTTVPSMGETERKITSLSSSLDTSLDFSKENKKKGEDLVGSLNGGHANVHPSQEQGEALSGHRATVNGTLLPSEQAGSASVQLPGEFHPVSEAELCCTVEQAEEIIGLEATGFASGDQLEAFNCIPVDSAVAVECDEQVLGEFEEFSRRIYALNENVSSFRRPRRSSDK
Description: Extended Data Fig. 2 Lipid kinase inhibitor profile of PITCOIN1-3. (a–c) Selectivity profiling of PITCOIN1-3 (1 µM) with purified lipid kinases in the presence of 10 µM ATP. […] Data are presented as mean ± SD from two independent experiments. (d, e) IC50 measurements of PITCOIN1-3 against purified recombinant class I PI3K p110α/p85α (d) or purified class III PI3K VPS34 complex II (e). 10 µM ATP and 20 µM PIP3 (for p110α/p85α) or 200 µM PI (for VPS34 complex II) were used as substrates. […] Data are presented as mean ± SD from two independent experiments. Source data

PDGFRB (PDGFR beta) = PDGFRB (PDGFR beta) (Homo sapiens, UniProt P09619); design: SelectScreen Z'-LYTE purified kinase panel, per cent inhibition, mean of two points; settings: (μM)=Km app
MAPK14 (p38 alpha) = MAPK14 (p38 alpha) (Homo sapiens, UniProt Q16539); design: SelectScreen Z'-LYTE purified kinase panel, per cent inhibition, mean of two points; settings: (μM)=100
Chain of MAPK14 (p38 alpha) (Q16539 whole entry): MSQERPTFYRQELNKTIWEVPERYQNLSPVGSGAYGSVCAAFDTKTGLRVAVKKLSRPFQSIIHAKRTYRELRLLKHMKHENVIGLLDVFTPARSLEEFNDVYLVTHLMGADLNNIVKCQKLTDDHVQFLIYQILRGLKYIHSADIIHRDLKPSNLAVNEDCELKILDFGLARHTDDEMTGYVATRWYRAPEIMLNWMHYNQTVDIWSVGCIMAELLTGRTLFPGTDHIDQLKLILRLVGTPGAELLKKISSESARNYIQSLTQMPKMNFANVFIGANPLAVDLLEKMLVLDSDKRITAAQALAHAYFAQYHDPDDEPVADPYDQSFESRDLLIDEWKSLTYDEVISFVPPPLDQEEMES

AKT2 (PKB beta) = AKT2 (PKB beta) (Homo sapiens, UniProt P31751); design: SelectScreen Z'-LYTE purified kinase panel, per cent inhibition, mean of two points; settings: (μM)=Km app
Chain of AKT2 (PKB beta) (P31751 whole entry): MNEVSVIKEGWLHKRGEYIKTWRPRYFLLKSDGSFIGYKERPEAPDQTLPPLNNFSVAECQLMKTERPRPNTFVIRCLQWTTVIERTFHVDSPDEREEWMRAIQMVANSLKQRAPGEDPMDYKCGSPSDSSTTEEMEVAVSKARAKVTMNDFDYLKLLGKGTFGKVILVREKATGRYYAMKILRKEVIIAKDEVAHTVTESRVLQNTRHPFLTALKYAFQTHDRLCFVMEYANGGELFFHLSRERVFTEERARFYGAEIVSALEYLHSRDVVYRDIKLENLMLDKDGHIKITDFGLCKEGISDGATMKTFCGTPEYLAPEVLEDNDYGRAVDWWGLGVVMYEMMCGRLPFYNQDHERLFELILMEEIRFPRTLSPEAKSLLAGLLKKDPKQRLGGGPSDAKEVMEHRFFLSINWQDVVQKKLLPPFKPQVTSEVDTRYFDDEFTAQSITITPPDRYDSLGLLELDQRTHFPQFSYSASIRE

RET = RET (Homo sapiens, UniProt P07949); design: SelectScreen Z'-LYTE purified kinase panel, per cent inhibition, mean of two points; settings: (μM)=Km app
PDK1 = molecular target: T3, PDK1 (Homo sapiens, UniProt O15530); design: SelectScreen Z'-LYTE purified kinase panel, per cent inhibition, mean of two points; settings: (μM)=100
T3 construct: gene PDPK1
T3 sequence (O15530 1-556): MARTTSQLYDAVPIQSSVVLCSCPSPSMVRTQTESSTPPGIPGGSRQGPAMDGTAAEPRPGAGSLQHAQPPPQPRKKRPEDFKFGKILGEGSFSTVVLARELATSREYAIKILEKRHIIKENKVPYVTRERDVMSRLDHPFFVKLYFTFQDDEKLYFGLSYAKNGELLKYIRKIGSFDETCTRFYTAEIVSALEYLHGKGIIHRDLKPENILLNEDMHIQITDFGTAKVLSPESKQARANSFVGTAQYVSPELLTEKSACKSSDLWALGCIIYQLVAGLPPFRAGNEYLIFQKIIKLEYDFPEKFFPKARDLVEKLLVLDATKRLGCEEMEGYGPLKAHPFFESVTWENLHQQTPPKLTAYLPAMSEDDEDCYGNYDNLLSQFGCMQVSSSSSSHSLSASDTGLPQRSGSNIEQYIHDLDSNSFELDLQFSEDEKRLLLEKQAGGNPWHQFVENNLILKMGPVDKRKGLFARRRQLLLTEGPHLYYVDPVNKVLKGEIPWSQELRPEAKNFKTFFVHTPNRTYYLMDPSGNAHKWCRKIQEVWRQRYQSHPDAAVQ

MAPKAPK2 = MAPKAPK2 (Homo sapiens, UniProt P49137); design: SelectScreen Z'-LYTE purified kinase panel, per cent inhibition, mean of two points; settings: (μM)=Km app
Chain of MAPKAPK2 (P49137 whole entry): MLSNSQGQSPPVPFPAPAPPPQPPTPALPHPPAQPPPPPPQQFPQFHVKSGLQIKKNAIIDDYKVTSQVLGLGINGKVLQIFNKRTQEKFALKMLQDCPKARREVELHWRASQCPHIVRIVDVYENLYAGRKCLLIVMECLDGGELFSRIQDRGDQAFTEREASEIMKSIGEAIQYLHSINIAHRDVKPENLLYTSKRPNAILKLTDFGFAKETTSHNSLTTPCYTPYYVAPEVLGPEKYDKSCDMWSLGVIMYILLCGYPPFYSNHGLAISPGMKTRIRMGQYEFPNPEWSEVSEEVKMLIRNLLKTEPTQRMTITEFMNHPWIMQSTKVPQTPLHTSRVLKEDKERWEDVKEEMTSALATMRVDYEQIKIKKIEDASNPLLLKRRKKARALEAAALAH

For O=C(CSc1nc2nccnc2c(=O)n1CCc1ccccc1)Nc1nc(-c2cccc(O)c2)cs1 [compound 2, PITCOIN2], the IC50 (PI3KC2γ; read-out: PITCOIN2 (IC50)) was over 10 µM, the inhibition at 1 µM (PIP5K1B) was -1% and the inhibition at 1 µM [1] was -10%. The inhibition at 1 µM [2] was 0%, the inhibition at 1 µM (FRAP1 (mTOR)) was 5% and the IC50 (VPS34 complex II; read-out: PITCOIN2 (IC50)) was over 10 µM.
For CS(=O)(=O)Nc1cccc(-c2csc(NC(=O)CSc3nc4nccnc4c(=O)n3CCc3ccccc3)n2)c1 [compound 3, PITCOIN3], the IC50 (PI3KC2γ; read-out: PITCOIN3 (IC50)) was over 10 µM, the inhibition at 1 µM (PDGFRB (PDGFR beta)) was 4.69% and the inhibition at 3 µM (PDGFRB (PDGFR beta)) was -3.18%. For the same compound, the inhibition at 10 µM (PDGFRB (PDGFR beta)) was 1.91%, the inhibition at 1 µM (MAPK14 (p38 alpha)) was 1.55% and the inhibition at 3 µM (MAPK14 (p38 alpha)) was 6.76%. For the same compound, the inhibition at 10 µM (MAPK14 (p38 alpha)) was 2.67%, the inhibition at 1 µM (AKT2 (PKB beta)) was 6.93% and the inhibition at 3 µM (AKT2 (PKB beta)) was 6.2%. It also gave an inhibition at 10 µM (AKT2 (PKB beta)) of 4.52%, an inhibition at 1 µM (RET) of 7.87% and an inhibition at 3 µM (RET) of 5.35%. For the same compound, the inhibition at 10 µM (RET) was 5%, the inhibition at 1 µM (PDK1) was 9.47% and the inhibition at 3 µM (PDK1) was 5.91%. The inhibition at 10 µM (PDK1) was 10.5%, the inhibition at 1 µM (MAPKAPK2) was 0.509% and the inhibition at 3 µM (MAPKAPK2) was 3.08%. For the same compound, the inhibition at 10 µM (MAPKAPK2) was 6.37%, the inhibition at 1 µM [1] was 5% and the inhibition at 1 µM [2] was 4%. For the same compound, the inhibition at 1 µM (FRAP1 (mTOR)) was 4% and the IC50 (VPS34 complex II; read-out: PITCOIN3 (IC50)) was over 10 µM.
With O=C(CSc1nc2nccnc2c(=O)n1CCc1ccccc1)Nc1nccs1 [compound 1, PITCOIN1] the inhibition at 1 µM (PDGFRB (PDGFR beta)) was -2.01%, the inhibition at 3 µM (PDGFRB (PDGFR beta)) was -3.23% and the inhibition at 10 µM (PDGFRB (PDGFR beta)) was 6.51%. It also gave an inhibition at 1 µM (MAPK14 (p38 alpha)) of -3.25%, an inhibition at 3 µM (MAPK14 (p38 alpha)) of -1.99% and an inhibition at 10 µM (MAPK14 (p38 alpha)) of -0.632%. It also gave an inhibition at 1 µM (AKT2 (PKB beta)) of 4.3%, an inhibition at 3 µM (AKT2 (PKB beta)) of 3.38% and an inhibition at 10 µM (AKT2 (PKB beta)) of 4.53%. For the same compound, the inhibition at 1 µM (RET) was 4.11%, the inhibition at 3 µM (RET) was 3.69% and the inhibition at 10 µM (RET) was 4.56%. For the same compound, the inhibition at 1 µM (PDK1) was 8.23%, the inhibition at 3 µM (PDK1) was 7.27% and the inhibition at 10 µM (PDK1) was 6.69%. The inhibition at 1 µM (MAPKAPK2) was 4.27%, the inhibition at 3 µM (MAPKAPK2) was 5.91% and the inhibition at 10 µM (MAPKAPK2) was 1.1%. For the same compound, the inhibition at 1 µM (PIP5K1B) was 5%, the inhibition at 1 µM [1] was -6% and the inhibition at 1 µM [2] was 2%. For the same compound, the inhibition at 1 µM (FRAP1 (mTOR)) was 8% and the IC50 (VPS34 complex II; read-out: PITCOIN1 (IC50)) was over 10 µM.
